Laboratory results: patent publication US20130059850A1, “AZA-INDOLE DERIVATIVES USEFUL AS MODULATORS OF FAAH” (MERCK SHARP & DOHME CORP., priority 2010, published 2013)
pIC50: −log10 of the molar value. Several values for one entry are separate records, joined by “and”; a condition that tells them apart may be missing. Equal values may be shown once.

Each compound was assayed against T1, human FAAH (Fatty Acid Amide Hydrolase) (Homo sapiens, UniProt O00519) (assay: FAAH enzyme assay on CHO cell lysate expressing human FAAH (human LY), AAMCA fluorescent substrate). Conditions: human FAAH_CHO cell lysate.
T1 construct: The full length FAAH was subcloned into the mammalian expression vector, pcDEF.neo, using XbaI and EcoRI restriction sites; expressed in transfected cells
T1 sequence (O00519 1-579): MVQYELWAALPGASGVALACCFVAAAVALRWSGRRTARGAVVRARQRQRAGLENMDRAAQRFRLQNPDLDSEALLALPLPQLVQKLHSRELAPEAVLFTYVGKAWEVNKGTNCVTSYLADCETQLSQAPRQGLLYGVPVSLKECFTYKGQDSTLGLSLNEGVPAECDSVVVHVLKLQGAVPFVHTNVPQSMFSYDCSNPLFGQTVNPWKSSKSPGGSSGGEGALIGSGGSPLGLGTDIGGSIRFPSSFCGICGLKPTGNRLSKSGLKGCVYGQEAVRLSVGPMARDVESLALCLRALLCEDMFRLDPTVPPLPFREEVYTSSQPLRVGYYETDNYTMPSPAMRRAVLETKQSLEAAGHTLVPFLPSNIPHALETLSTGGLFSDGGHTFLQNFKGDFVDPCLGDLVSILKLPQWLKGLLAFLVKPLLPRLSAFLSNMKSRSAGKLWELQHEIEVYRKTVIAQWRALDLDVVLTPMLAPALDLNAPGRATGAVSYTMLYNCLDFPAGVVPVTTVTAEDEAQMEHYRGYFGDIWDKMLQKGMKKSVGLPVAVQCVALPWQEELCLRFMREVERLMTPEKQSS
Type: biochemical
From the text: (§1) To assist in assay development stable cell lines for human, murine and rat full length FAAH were developed. Human FAAH cDNA (Accession No: NM_001441.1) was purchased from Origene (Rockville, Md.). The full length FAAH was subcloned into the mammalian expression vector, pcDEF.neo, using XbaI and EcoRI restriction sites and used for stable cell line generation.
CHO cells expressing FAAH were used to prepare either crude cell lysate or microsome fractions. To harvest cells, tissue culture media was decanted, the monolayer washed three times with Ca^++Mg^++ free PBS and cells recovered after […] in enzyme free dissociation media (Millipore Corp, Billerica, Mass.). Cells were collected by centrifuging at 2000 rpm for 15 min. and the cell pellet re-suspended with 50 mM HEPES (pH 7.4) containing 1 mM EDTA and the protease inhibitors aprotinin (1 mg/ml) and leupeptin (100 μM). The suspension was sonicated at 4° C. and the cell lysate recovered after centrifuging at 12,000×g (14,600 rpm, SS34 rotor) for 20 min at 4° C. to form a crude pellet of cell debris, nuclei, peroxisomes, lysosomes, and mitochondria; the supernatant or cell lysate was used for FAAH enzyme assay. In some cases, microsomes fractions enriched in FAAH were prepared by centrifuging the cell lysate further at 27,000 rpm (100,000×g) in SW28 rotor for 50 minutes at 4° C. The pellet containing FAAH-enriched microsomes was re-suspend in 50 mM HEPES, (pH 7.4) 1 mM EDTA, and any remaining DNA sheared by passage of material through a 23 gauge needle and aliquots of enzyme were store at −80° C. prior to use.
(§2) (American Radiolabeled Chemicals; 1 mCi/ml) with FAAH (Life Sciences (1995), 56, 1999-2005 and Journal of Pharmacology and Experimented Therapeutics (1997), 283, 729-734), Analytical. Biochemistry (2003), 318, 270-5. In addition, routine assays were performed monitoring hydrolysis of arachidonyl-7-amino-4-methylcoumarin amide (AAMCA) by following increase in fluorescence upon release of 7-amino 4-methyl coumarin (λEX=355 nm, μEM=460 nm). Analytical. Biochemistry (2005). 343, 143-51
(§3) Assays are performed on either cell lysate or microsome fractions prepared as described or in whole cell format employing either the fluorescent substrate AAMCA (Cayman chemical, Ann Arbor, Mich.,) or ^3H-anandamide ([ETHANOLAMINE-1-3H] American Radiolabeled Chemicals; 1 mCi/ml). The cell lysate or microsome assay is performed in black PerkinElmer OptiPlates-384F by adding FAAH_CHO (whole cell (human whole cell or human WC), cell lysate (human cell lysate or human LY) or microsome) in assay buffer (50 mM Phosphate, pH 8.0, 1 mM EDTA, 200 mM KCl, 0.2% glycerol, 0.1% fatty acid free BSA) to each well, followed by either DMSO or compound and allowed to incubate at 22-25° C. for fifteen minutes. AAMCA substrate was used to achieve a final concentration of 1 μM and reaction allowed to proceed at room temperature for 1-3 hours. Fluorescent release as a measure of FAAH activity was monitored by reading the plate in a Envision plate Reader (Ex: 360/40 nM; Em: 460/40 nM). Whole cell assay is conducted with cells harvested after rinsing tissue culture flasks three times with Ca^++Mg^++ free PBS, incubating for […] in Enzyme free dissociation media and centrifuging for 5 minutes at 1,000 rpm in table top centrifuge. Cells are resuspended in assay buffer at desired cell number in (4×10^4 cells/assay in 96-well format; 1×10^4 cells/assay in 384-well format) and assayed as described.

pIC50 | SMILES
8.22 | NS(=O)(=O)c1ccc(-c2[nH]c3ncccc3c2Sc2ccc(Cl)cn2)cc1 [Example A8, 4-{3-[(5-chloropyridin-2-yl)sulfanyl]-1H-pyrrolo[2,3-b]pyridin-2-yl}benzenesulfonamide]
7.93 and 7.69 | OC1CC=C(c2[nH]c3ncccc3c2Sc2ccc(Cl)cn2)CC1 (stereo not shown) [Example A28]

Each compound was assayed against T1, human FAAH (Fatty Acid Amide Hydrolase) (assay: FAAH whole cell assay on CHO cells expressing human FAAH (human WC), AAMCA fluorescent substrate). Conditions: human FAAH_CHO whole cell.
Type: cell-based
From the text: as §1
Murine (accession number NM_010173) and Rat FAAH (accession number NM_024132) was amplified by reverse transcriptase polymerase chain reaction (RT-PCR) from brain cDNA (BD Biosciences, San Jose, Calif.) using primers 1 and 2 or primers 1 and 3 respectively (see Table). The resulting PCR product was ligated into pCR4 TOPO and DNA sequence confirmed. The full length murine FAAH was subcloned into the mammalian expression vector, pcDEFneo using either EcoRI (murine) or KpnI and EcoRI (rat) restriction sites. Chinese hamster ovary cells (CHO) were transfected following manufacturers protocol (AMAXA). Forty eight hours post transfection, cells were trypsinized and transferred to 96 well plates in Iscove's DMEM media supplemented with 2 mM Glutamine, 10% fetal calf serum, 1 mg/ml geneticin and HT Supplement (0.1 mM sodium hypoxanthine, 0.016 mM thymidine) in order to isolate single clones. Following selection in geneticin, individual clones were selected and FAAH activity was assessed using a whole cell fluorescent anandamide assay, modified from Ramarao et al (2005). Following removal of tissue culture media cells were dislodged following addition of Cellstripper (Mediatech, Inc. Manassas, Va.) and transferred to 96 well black clear bottom assay plate, centrifuged at 1,000 rpm for 3 mins and media removed and replaced with assay buffer (50 mM Tris pH8.0, 1 mM EDTA, 0.1% fatty acid free BSA). The reaction was initiated by addition of fluorescent substrate, AMC Arachidonoyl Amide (Cayman Chemical, Ann Arbor, Mich.) to 1 μM and reaction allowed to proceed for 2 hours at room temperature. Release of fluorescence was monitored in a CytoFluor Multiplate Reader. Cells expressing the highest amount of FAAH activity were selected for study with FAAH inhibitors.
as §2
as §3, with “Cells are resuspended in assay buffer at desired cell number in (4×10^4 cells/assay in 96-well format; 1×10^4 cells/assay in 384-well format) and assayed as described.” left out

pIC50 | SMILES
7.66 | NS(=O)(=O)c1ccc(-c2[nH]c3ncccc3c2Sc2ccc(Cl)cn2)cc1 [Example A8, 4-{3-[(5-chloropyridin-2-yl)sulfanyl]-1H-pyrrolo[2,3-b]pyridin-2-yl}benzenesulfonamide]
7.50 and 7.22 | OC1CC=C(c2[nH]c3ncccc3c2Sc2ccc(Cl)cn2)CC1 (stereo not shown) [Example A28]
6.82 | CC(C)(O)CCc1[nH]c2ncccc2c1Sc1ccc(Cl)cc1 [Example H2, 4-{3-[(4-chlorophenyl)sulfanyl]-1H-pyrrolo[2,3-b]pyridin-2-yl}-2-methylbutan-2-ol]
7.06 | Cn1cc2cc(-c3nc4n(C)cccc-4c3Sc3ccc(Cl)cn3)ccc2n1 [Example E30]
6.95 | C[C@@H](Cc1nc2n(C)cccc-2c1Sc1ccc(Cl)cc1)C(C)(C)O [Example E27]
5.92 | C[C@H](CO)Cc1[nH]c2ncccc2c1Sc1ccc(Cl)cc1 [Example H7]
7.50 | CC(C)(O)CN1CCC(c2[nH]c3ncccc3c2Sc2ccc(Cl)cc2)CC1 [Example H5]
8.03 | COC(=O)N1CCC(c2nc3n(C)cccc-3c2Sc2ccc(Cl)cc2)CC1 [Example E32]
5.46 | N#CCCCc1[nH]c2ncccc2c1Sc1ccc(Cl)cc1 [Example F6]
7.76 | Cn1cc2cc(-c3nc4n(C)cccc-4c3Sc3ccc(Cl)cc3)ccc2n1 [Example E29]
6.57 | Clc1ccc(Sc2c(CC3CCCCC3)[nH]c3ncccc23)cc1 [Example F4]
7.60 | Cn1cc2cc(-c3[nH]c4ncccc4c3Sc3ccc(Cl)cn3)ccc2n1 [Example B44]
6.16 | OCCCc1[nH]c2ncccc2c1Sc1ccc(Cl)cc1 [Example H4, 3-{3-[(4-chlorophenyl)sulfanyl]-1,1-pyrrolo[2,3-b]pyridin-2-yl}propan-1-ol]
5.93 | O=C(NCC1(CO)CCOCC1)c1[nH]c2ncccc2c1Sc1ccc(Cl)cc1 [Example C22]
6.30 | Cn1cccc2c(Sc3ccc(Cl)cc3)c(C(=O)NC3CCC(O)CC3)nc1-2 (stereo not shown) [Example E26]
6.22 | O=C(NCCCO)c1[nH]c2ncccc2c1Sc1ccc(Cl)cc1 [Example C19]

pIC50 | SMILES
7.05 | C[C@@H](Cc1[nH]c2ncccc2c1Sc1ccc(Cl)cc1)C(C)(C)O [Example H8]
7.62 | COC(=O)CN1CCC(c2[nH]c3ncccc3c2Sc2ccc(Cl)cc2)CC1 [Example G7, Methyl (4-{3-[(4-chlorophenyl)sulfanyl]-1H-pyrrolo[2,3-b]pyridin-2-yl}piperidin-1-yl)acetate]
7.62 | Cn1cccc2c(Sc3ccc(Cl)cc3)c(-c3ccc4c(c3)CNC4=O)nc1-2 [Example E28]
6.28 | OCCCCc1[nH]c2ncccc2c1Sc1ccc(Cl)cc1 [Example H6]
6.17 | Clc1ccc(Sc2c(C3CCNCC3)[nH]c3ncccc23)cc1 [Example G3, 3-[(4-chlorophenyl)sulfanyl]-2-(piperidin-4-yl)-1H-pyrrolo[2,3-b]pyridine]
7.23 | Cn1cccc2c(Sc3ccc(Cl)cc3)c(-c3ccc(C(O)C(F)F)cc3)nc1-2 (stereo not shown) [Example E25]
5.68 | C[C@H](CO)NC(=O)c1[nH]c2ncccc2c1Sc1ccc(Cl)cc1 [Example C20]
6.84 | Cn1cccc2c(Sc3ccc(Cl)cn3)c(-c3ccc4c(c3)CNC4=O)nc1-2 [Example E31]
8.23 | Cn1cc2cc(-c3[nH]c4ncccc4c3Sc3ccc(Cl)cc3)ccc2n1 [Example B42]
5.96 | O=C(c1[nH]c2ncccc2c1Sc1ccc(Cl)cc1)N1CCC(O)CC1 [Example C6, {3-[(4-chlorophenyl)sulfanyl]-1H-pyrrolo[2,3-b]pyridin-2-yl}(4-hydroxypiperidin-1-yl)methanone]
6.44 | O=C(NCCCCO)c1[nH]c2ncccc2c1Sc1ccc(Cl)cc1 [Example C21]
5.53 | O=C(NCCO)c1[nH]c2ncccc2c1Sc1ccc(Cl)cc1 [Example C18]
7.45 | OC[C@H]1CC[C@H](c2[nH]c3ncccc3c2Sc2ccc(Cl)cc2)CC1 [Example B52]
7.19 | CCOC(=O)CCc1[nH]c2ncccc2c1Sc1ccc(Cl)cc1 [Example F3, Ethyl 3-{3-[(4-chlorophenyl)sulfanyl]-1H-pyrrolo[2,3-b]pyridin-2-yl}propanoate]
7.96 | COC(=O)N1CCC(c2[nH]c3ncccc3c2Sc2ccc(Cl)cc2)CC1 [Example G5, Methyl 4-{3-[(4-chlorophenyl)sulfanyl]-1H-pyrrolo[2,3-b]pyridin-2-yl}piperidine-1-carboxylate]

SMILES | pIC50
CCOC(=O)CCCc1[nH]c2ncccc2c1Sc1ccc(Cl)cc1 [Example F10] | 6.46
